Laboratory results reported in ChEMBL document CHEMBL1128073, “Inhibition of glycosidases by substituted amidines” (Bioorg Med Chem Lett, 1995).

Key:
[1] = Inhibition against Alpha-maninosidase in jack bean; design: species or system Canavalia ensiformis
Beta-galactosidase = biological target: T1, Beta-galactosidase (Bos taurus, UniProt Q58D55); assay: Inhibition against beta-galactosidase in bovine liver; NI is No Inhibition at 1 mM
T1 sequence (Q58D55 whole entry): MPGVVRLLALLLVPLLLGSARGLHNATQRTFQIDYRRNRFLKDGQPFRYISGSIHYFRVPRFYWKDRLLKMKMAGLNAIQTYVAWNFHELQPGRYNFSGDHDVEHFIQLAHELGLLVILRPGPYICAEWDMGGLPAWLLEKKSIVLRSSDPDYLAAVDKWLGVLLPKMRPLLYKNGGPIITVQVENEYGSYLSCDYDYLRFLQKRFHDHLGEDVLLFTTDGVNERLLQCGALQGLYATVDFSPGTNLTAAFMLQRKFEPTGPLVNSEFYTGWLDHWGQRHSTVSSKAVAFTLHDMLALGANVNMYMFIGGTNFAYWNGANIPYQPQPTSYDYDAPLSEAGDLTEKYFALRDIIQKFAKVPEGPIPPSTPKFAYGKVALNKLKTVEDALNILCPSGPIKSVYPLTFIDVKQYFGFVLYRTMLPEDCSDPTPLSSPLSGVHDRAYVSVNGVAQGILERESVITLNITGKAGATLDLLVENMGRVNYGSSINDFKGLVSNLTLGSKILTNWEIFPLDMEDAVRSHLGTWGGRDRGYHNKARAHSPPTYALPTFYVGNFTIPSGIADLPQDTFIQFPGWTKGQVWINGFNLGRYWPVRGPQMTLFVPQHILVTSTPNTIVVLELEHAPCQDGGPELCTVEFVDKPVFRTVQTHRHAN

[2] = pKa value was determined for the compound by 1H NMR titration; assay type: physicochemical

| SMILES | Ki [1] [µM] | Ki (Beta-galactosidase) | pKa [2] |
| --- | --- | --- | --- |
| c1ccc(CNC2=NCCCC2)cc1 | 14000 | – | – |
| OCC1CCCC(NCc2ccccc2)=N1 (configuration not stated) | 1400 | – | – |
| OC[C@@H]1N=C(NCc2ccccc2)[C@@H](O)[C@@H](O)[C@@H]1O | 0.55 | No inhibition | 10 |
| CO[C@H]1O[C@@H](CNC2=N[C@@H](CO)[C@@H](O)[C@H](O)[C@@H]2O)[C@@H](O)[C@H](O)[C@H]1O | 2.6 | No inhibition | – |
